Assay [1] concerns the target T1, Calmodulin Kinase (calmodulin-dependent protein kinase 2) (Rattus norvegicus, UniProt P11275).
T1 construct: purchased New England Biolabs 6060; host or cells: insect cells
Kind of assay: Kinase selectivity assay Calmodulin Kinase. The assay is classed as biochemical. The protocol:
(§1) Assays to test compound inhibition of other kinases were preformed using methods that measure the amount of phosphorylation of a biotinylated peptide substrate. Biotinylated peptide substrates were selected from the literature as appropriate for the enzyme being evaluated. The general procedure used to assay for kinase activity is as follows: a kinase reaction mix was prepared in 50 mM Tris-HCl pH=8, 10 mM MgCl2, 0.1 mM Na3VO4, 1 mM DTT, 10 μM ATP, 0.25–1 μM biotinylated peptide substrate, 0.2–0.8 μCuries per well ^33P-γ-ATP (2000–3000 Ci/mmol). Assay conditions vary slightly for each protein kinase, for example, insulin receptor kinase requires 10 mM MnCl2 for activity and Calmodulin-dependent protein kinase requires calmodulin and 2 mM CaCl2. The reaction mixture was dispensed into the wells of a streptavidin coated Flashplate and 1 μL test compound in 100% DMSO was added to a 100 μL reaction volume resulting in a final concentration of 1% DMSO in the reaction. Enzyme was diluted in 50 mM Tris-HCl pH=8.0, 0.1% BSA and added to each well. The reaction was incubated for one hour at 30° C. in the presence of a test compound. […] The plate was read on a scintillation counter to determine ^33P-γ-ATP incorporated into the immobilized peptide substrate. […] A maximum and minimum signal for the assay was determined on each plate. […]

The next assay concerns the target GSK-3 (beta isoform) (Oryctolagus cuniculus, UniProt G1T8E2). Kind of assay: Kinase selectivity assay GSK-3. The assay is classed as biochemical, rabbit. Here is the method:
as §1

A further assay deals with T2, Casein Kinase 2 (Homo sapiens, UniProt P68400).
T2 construct: purchased New England Biolabs 6010; host or cells: E. coli
T2 sequence (P68400 whole entry): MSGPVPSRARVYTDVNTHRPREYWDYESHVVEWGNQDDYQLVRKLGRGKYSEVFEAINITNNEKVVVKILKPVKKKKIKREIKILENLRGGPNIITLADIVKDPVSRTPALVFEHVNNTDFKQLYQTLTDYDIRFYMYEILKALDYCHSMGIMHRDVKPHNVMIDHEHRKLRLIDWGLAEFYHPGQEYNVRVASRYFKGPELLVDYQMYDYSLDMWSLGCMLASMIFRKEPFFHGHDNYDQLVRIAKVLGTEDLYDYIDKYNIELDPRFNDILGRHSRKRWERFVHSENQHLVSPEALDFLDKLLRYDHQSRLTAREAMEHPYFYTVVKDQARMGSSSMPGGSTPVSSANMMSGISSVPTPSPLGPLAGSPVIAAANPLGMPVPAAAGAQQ
T2 sequence (P67870 whole entry partner): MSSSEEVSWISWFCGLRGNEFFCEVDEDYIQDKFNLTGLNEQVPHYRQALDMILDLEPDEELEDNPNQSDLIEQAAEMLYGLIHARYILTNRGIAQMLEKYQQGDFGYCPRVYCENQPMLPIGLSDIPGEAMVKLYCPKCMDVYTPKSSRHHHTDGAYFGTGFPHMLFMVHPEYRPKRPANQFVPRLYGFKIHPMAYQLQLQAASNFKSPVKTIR
Kind of assay: Kinase selectivity assay Casein Kinase 2. The class given is biochemical. Here is the method:
as §1

The next assay addresses T3, CDK1:Cyclin-B (Homo sapiens, UniProt P06493).
T3 construct: purchased New England Biolabs 6020; host or cells: insect cells
Briefly: CDK1 Screening Assay. The class given is biochemical. The protocol:
A kinase reaction mixture was prepared containing 50 mM Tris-HCl pH=8, 10 mM MgCl2, 0.1 mM Na3PO4, 1 mM DTT, 10 μM ATP, 0.025 μM biotinylated histone-H1 peptide substrate (also referred to herein as a CDK-1 peptide substrate, see substrate table) and 0.2 μCuries per well ^33P-γ-ATP (2000–3000 Ci/mmol). 70 μL of the kinase reaction mixture was dispensed into the well of a streptavidin coated FlashPlate™ (Cat. # SMP 103, NEN, Boston, Mass.). Then 1 μL of test compound stock in 100% DMSO was added to the wells resulting in a final concentration of 1% DMSO in the reaction with a 100 μl final reaction volume. Next, CDK1:Cyclin-B protein (New England Biolads, infra) was diluted in 50 mM Tris-HCl pH=8.0, 0.1% BSA at a concentration of 1 ng per μL and 30 μl (30 ng enzyme per test well) was added to each well to initiate the reaction. The reaction was incubated for one hour at 30° C. At the end of the 1-hour incubation, the reaction was terminated by aspirating the reaction mixture from the plate and washing the wells twice with PBS containing 100 mM EDTA. The histone-H1 biotinylated peptide substrate became immobilized on the Flashplate™ (Perkin Elmer, NEN Boston, Mass.) and the incorporation of ^33P-γ-ATP was measured by reading the plate on a scintillation counter. Inhibition of the enzymatic activity of CDK1 was measured by observing a reduced amount of ^33P-γ-ATP incorporated into the immobilized peptide.
Assays to test compound inhibition of other kinases were preformed using methods that measure the amount of phosphorylation of a biotinylated peptide substrate. Biotinylated peptide substrates were selected from the literature as appropriate for the enzyme being evaluated. The general procedure used to assay for kinase activity is as follows: a kinase reaction mix was prepared in 50 mM Tris-HCl pH=8, 10 mM MgCl2, 0.1 mM Na3VO4, 1 mM DTT, 10 μM ATP, 0.25–1 μM biotinylated peptide substrate, 0.2–0.8 μCuries per well ^33P-γ-ATP (2000–3000 Ci/mmol). Assay conditions vary slightly for each protein kinase, for example, insulin receptor kinase requires 10 mM MnCl2 for activity and Calmodulin-dependent protein kinase requires calmodulin and 2 mM CaCl2. The reaction mixture was dispensed into the wells of a streptavidin coated Flashplate and 1 μL test compound in 100% DMSO was added to a 100 μL reaction volume resulting in a final concentration of 1% DMSO in the reaction. Enzyme was diluted in 50 mM Tris-HCl pH=8.0, 0.1% BSA and added to each well. The reaction was incubated for one hour at 30° C. in the presence of a test compound. After one hour the reaction mix was aspirated from the plate and the plate was washed with PBS containing 100 mM EDTA. The plate was read on a scintillation counter to determine ^33P-γ-ATP incorporated into the immobilized peptide substrate. Test compounds were assayed in duplicate at 8 concentrations (100 μM, 10 μM, 1 μM, 100 nM, 10 nM, 1 nM, 100 pM, 10 pM). A maximum and minimum signal for the assay was determined on each plate. […] Known inhibitor compounds appropriate for the kinase being assayed were also included on each plate.
The form of VEGF-R (vascular endothelial growth factor receptor-2) used was a fusion protein containing a polyhistidine tag at the N-terminus followed by amino acids 786–1343 of the rat VEGF-R2 kinase domain (GenBank Accession #U93306). The form of CDK1 (cyclin dependent kinase 1) used was isolated from insect cells expressing both the human CDK1 catalytic subunit and its positive regulatory subunit cyclin B (CDK1:cyclin B protein, New England Biolabs, Beverly, Mass., Cat. #6020). The form of CDK4 (cyclin dependent kinase 4) used contains amino acids 769 to 921 of the mouse […] protein found in the GST-retinoblastoma protein construct (Santa Cruz Biotechnology, Santa Cruz, Calif.; Cat. #SC-4112). The form of EGF-R1 (epidermal growth factor receptor 1) used was purified from human A431 cell membranes (Sigma, St. Louis, Mo., Cat.# E3641). […]

Chain of GSK-3 (beta isoform) (G1T8E2 1-432): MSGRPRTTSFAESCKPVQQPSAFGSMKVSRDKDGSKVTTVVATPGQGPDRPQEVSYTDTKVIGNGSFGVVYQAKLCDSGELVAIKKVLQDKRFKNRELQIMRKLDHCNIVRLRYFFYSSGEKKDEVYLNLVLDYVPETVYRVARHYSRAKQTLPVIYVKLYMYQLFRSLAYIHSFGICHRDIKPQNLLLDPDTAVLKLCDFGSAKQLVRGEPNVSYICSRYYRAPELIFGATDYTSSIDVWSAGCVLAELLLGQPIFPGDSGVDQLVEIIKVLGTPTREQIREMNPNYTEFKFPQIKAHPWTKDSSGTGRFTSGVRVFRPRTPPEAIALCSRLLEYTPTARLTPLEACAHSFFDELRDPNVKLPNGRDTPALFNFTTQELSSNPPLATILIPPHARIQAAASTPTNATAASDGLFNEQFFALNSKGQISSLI
T3 sequence (P06493 whole entry): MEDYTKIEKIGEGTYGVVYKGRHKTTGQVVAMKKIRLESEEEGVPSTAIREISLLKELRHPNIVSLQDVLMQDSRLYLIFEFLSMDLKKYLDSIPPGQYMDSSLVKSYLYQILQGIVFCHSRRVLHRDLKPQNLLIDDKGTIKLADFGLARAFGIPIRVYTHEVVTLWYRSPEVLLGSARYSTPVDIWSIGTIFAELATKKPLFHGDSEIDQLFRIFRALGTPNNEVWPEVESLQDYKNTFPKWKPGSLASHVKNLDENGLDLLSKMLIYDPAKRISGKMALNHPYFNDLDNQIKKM
T3 sequence (P14635 whole entry partner): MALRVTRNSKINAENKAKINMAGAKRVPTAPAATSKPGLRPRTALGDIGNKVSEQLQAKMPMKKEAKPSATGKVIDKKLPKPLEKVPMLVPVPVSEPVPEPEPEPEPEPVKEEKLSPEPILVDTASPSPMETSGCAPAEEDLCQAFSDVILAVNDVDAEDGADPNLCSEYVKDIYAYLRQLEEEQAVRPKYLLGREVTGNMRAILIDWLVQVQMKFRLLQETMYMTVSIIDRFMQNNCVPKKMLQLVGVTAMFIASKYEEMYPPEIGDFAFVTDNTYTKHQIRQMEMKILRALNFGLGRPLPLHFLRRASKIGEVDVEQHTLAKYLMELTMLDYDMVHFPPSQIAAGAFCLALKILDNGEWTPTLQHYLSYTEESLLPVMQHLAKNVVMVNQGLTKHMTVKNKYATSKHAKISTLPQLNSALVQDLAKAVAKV

With `OCCCNc1cc(-c2ncnc(Nc3cccc(Cl)c3)n2)ccn1` [Compound 2, 3-((4-(4-((3-chlorophenyl)amino)-1,3,5-triazin-2-yl)-2-pyridinyl)amino)-1-propanol], the IC50 in assay [1] was greater than 10 µM; against GSK-3 (beta isoform), 17 nM; at Casein Kinase 2 it was greater than 100000 nM; against CDK1:Cyclin-B it was 16 nM.

For `OCCCNc1cncc(-c2ncnc(Nc3cccc(Cl)c3)n2)c1` [Compound 1, 3-((5-(4-((3-chlorophenyl)amino)-1,3,5-triazin-2-yl)-3-pyridinyl)amino)-1-propanol], the IC50 in assay [1] was found to be 54.2 µM; at GSK-3 (beta isoform), 5 nM; against Casein Kinase 2 it was 926 nM; against CDK1:Cyclin-B it was 39 nM.
